Data set [1] has as its system (Na^+, K^+) ATPase of the neuronal membrane. As to the kind of experiment: (Na+,K+)ATPase activity of the neuronal membrane (rat brain P2 fraction). In kind it is biochemical. The note with it: concentration 50 (50 nM), incubation with neuronal membranes 37° C. two hours; controls 100; 120 min. Here is the method: a. Preparation of the raw mitochondrial fraction of rat brain (Fraction P2):
The procedure used in the preparation of P2 fraction was taken from Morgan e coll., Biochem. Biophys. Acta 241, 37 (1971). (The various operations were carried out at 0° to 4° C.; the xg values are average centrifugal forces).
Adult male Sprague Dawley rats (supplied by Charles River) (body weight 150-175 g) were decapitated and their brains were immediately removed and washed in an ice cold isotonic solution. After excision of the cerebellum, the brains were homogenized by effecting 12 up and down movements in a motor-driven glass and Telfon homogenizer (declared radial clearance 0.25 mm; 800 r.p.m.) using 4 vol. of homogenizing solution (0.32M saccharose containing 1 mM potassium phosphate buffer and […] of disodium EDTA, pH 7.27). The homogenized substance, filtered through four layers of fine gauze, was centrifuged at 1000 r.p.m. for 15 minutes. The resulting pellet was washed with the same initial volume of homogenizing solution and centrifuged as described above. The gathered supernatants were centrifuged at 17,500 r.p.m. for 25 minutes (these conditions of gravitational centrifugal force were used to obtain the maximum enrichment of nervous terminations in the fraction) and the pellet was washed four times in 9 volumes (each time) of homogenizing solution and centrifuged (17,500 r.p.m. for 25 minutes).
The final pellet, known as "P2 fraction" contains as its principal component, whole mitochondria and nervous terminations. The final pellet was homogeneously resuspended with a suitable volume of homogenizing solution with a glass and Teflon homogenizer, and used immediately for the test. […]
ATPase activity was measured by spectrophotometry according to Wallick and coll. […] The (Na^+, K^+)ATPase activity is determined by the difference between the total ATPase activity and the dependent ATPase Mg^2+ activity measured in the presence of 3×10^-5 M of Ouabain. […] The ATPase activity was expressed as International Unit (I.U.) (μmoles hydrolized ATP/mg protein/min). […]

In the next data set the test system is PC12 cells. The data set is described as follows: Neurite sprouting in PC12 cells. Format: cell-based. The note with it: 10^-6 M, serum-free vehicle with 50 ng/ml NGF, third day; controls 21.5.
Details of data set [2]: species or system Swiss mice. To be noted: mouse, in vivo, iv. Here is the method: Labelled ganglioside is prepared as described by Suzuki et al. [J. Lipid Res. 13, 687-690 (1972)] and modified by Ghidoni et al. [Ital. J. Biochem. 23, 320-328 (1974)]. The ethyl and isopropyl esters are prepared by esterification of this labelled ganglioside. The specific radioactivity is measured both of the ganglioside and esters.
Swiss mice obtained from Charles River (Calco), weighing about 20-25 g were treated by intravenous route with 10 μC of the products. 2-4-8-12-16 hours after administration, the animals were sacrificed by decapitation and their blood was gathered in heparinized flasks. The nonvolatile radioactivity was determined on blood samples by means of a Packard TRICARB scintillator and then identified with reference to ^3 H ganglioside and to the esters by TLC.

This note sets out measurements from US4713374A, “Ganglioside derivatives” (priority 1984, dated 1987).

Procedure for PC12 cells: The cells are then washed three times in a serum-free vehicle. […] This effect is evaluated by counting the number of cells with neurites at the third day.

`CCCCCCCCCCCCC/C=C/[C@@H](O)[C@H](CO[C@@H]1O[C@H](CO)[C@@H](O[C@@H]2O[C@H](CO)[C@H](O[C@@H]3O[C@H](CO)[C@H](O)[C@H](O[C@@H]4O[C@H](CO)[C@H](O)[C@H](O)[C@H]4O)[C@H]3NC(C)=O)[C@H](O[C@]3(C(N)=O)C[C@H](O)[C@@H](NC(C)=O)[C@H]([C@H](O)[C@H](O)CO)O3)[C@H]2O)[C@H](O)[C@H]1O)NC(=O)CCCCCCCCCCCCCCCCC` [Amide of GM1, Amide of the ganglioside GM1]: the “% increase in (Na^+, K^+) ATPase activity” value (“% increase” for short) in data set [1] is 128%. In the data set with PC12 cells, the “% of the no. of cells with neurites at 3rd day” value (“% of the no. of cells” for short) was 33.3%.

For the compound `CCCCCCCCCCCCC/C=C/[C@@H](O)[C@H](CO[C@@H]1O[C@H](CO)[C@@H](O[C@@H]2O[C@H](CO)[C@H](O[C@@H]3O[C@H](CO)[C@H](O)[C@H](O[C@@H]4O[C@H](CO)[C@H](O)[C@H](O)[C@H]4O)[C@H]3NC(C)=O)[C@H](O[C@]3(C(=O)OC)C[C@H](O)[C@@H](NC(C)=O)[C@H]([C@H](O)[C@H](O)CO)O3)[C@H]2O)[C@H](O)[C@H]1O)NC(=O)CCCCCCCCCCCCCCCCC` [Methylic ester of GM1, Methyl ester of the ganglioside GM1], the “% increase” value in data set [1] was determined as 132%. Further, the “% of the no. of cells” value with PC12 cells came to 35.7%.

Consider `CCCCCCCCCCCCC/C=C/[C@@H](O)[C@H](CO[C@@H]1O[C@H](CO)[C@@H](O[C@@H]2O[C@H](CO)[C@H](O[C@@H]3O[C@H](CO)[C@H](O)[C@H](O[C@@H]4O[C@H](CO)[C@H](O)[C@H](O)[C@H]4O)[C@H]3NC(C)=O)[C@H](O[C@]3(C(=O)O)C[C@H](O)[C@@H](NC(C)=O)[C@H]([C@H](O)[C@H](O)CO)O3)[C@H]2O)[C@H](O)[C@H]1O)NC(=O)CCCCCCCCCCCCCCCCC` [Monosialoganglioside GM1, ganglioside GM1, reference compound], for which the “% increase” value in data set [1] is 133%. The “% of the no. of cells” value with PC12 cells is given as 34.8%.

In the case of `CCCCCCCCCCCCC/C=C/[C@@H](O)[C@H](CO[C@@H]1O[C@H](CO)[C@@H](O[C@@H]2O[C@H](CO)[C@H](O[C@@H]3O[C@H](CO)[C@H](O)[C@H](O[C@@H]4O[C@H](CO)[C@H](O)[C@H](O)[C@H]4O)[C@H]3NC(C)=O)[C@H](O[C@]3(C(=O)O)C[C@H](O)[C@@H](NC(C)=O)[C@H]([C@H](O)[C@H](O)CO)O3)[C@H]2O)[C@H](O)[C@H]1O)NC(=O)CCCCCCCCCCCCCCCCC` [tritiated ganglioside], in data set [2], the “t/2 of first phase of blood kinetic curve” value is “about three”.
